# Like-named read-outs stand apart in the source and are kept apart here.
# Columns and labels:
# HaCat cells [1] = assay: Cell viability of HaCat keratinocytes, Neutral Red Staining; format: cell-based, human; details: for Responsiveness of HaCat cells (viability): comparison of thioridazine, doxorubicin, 5-FU, FIG. 3A; for IC50: Homo sapiens, HaCaT, read-out: Mean IC50 in keratinocytes, HaCat; for Effect on viability of HaCat cells: 5-100 μM, 24 hr
# Experimental: (§1) In general, 10,000 cells/well were treated with drugs from different categories of psychotropic drugs.
# (§2) The effect of the drugs was compared at equimolar concentrations to that of two commonly used anticancer agents (Doxorubicin and 5-fluorouracil (5-FU)).
# HaCat A5 cells = assay: Cell viability of HaCat A5 keratinocytes, Neutral Red Staining; format: cell-based, human; details: for Effect on viability of HaCat A5 cells: 5-100 μM, 24 hr
# Experimental: as §1, §2
# HaCat II-4RT cells = assay: Cell viability of HaCat II-4RT keratinocytes, Neutral Red Staining; format: cell-based, human; details: for Effect on viability of HaCat II4 cells: 5-100 μM, 24 hr
# Experimental: as §1, §2
# HaCat cells [2] = assay: Apoptosis by Hoechst 33342 / propidium iodide fluorescence microscopy; format: cell-based, human; details: 20 μM, 24 hours
# Experimental: In particular, HaCat cells (10,000/well) were exposed to the different drugs (20 μM) or to saline (control). Twenty four hours post exposure, the cells were co-stained with the DNA binding dyes, Hoechst 33342 (20 μg/ml) propidium iodide (PI) (10 μg/ml), for 5 min at room temperature. The cells were then examined using a fluorescence microscope with ultraviolet excitation at 340-380 nm. Typically, intact cells are detected by a blue Hoechst fluorescence while fragmented nuclear is detected by a red fluorescence, indicating cells undergoing apoptosis [Harel et al., Sensitivity of HaCat keratinocytes to diabetogenic toxins, Biochem. Pharmacol., 63:171-178, 2002].
# [3] = tested on: wild type B16 melanoma cells; assay: Cell viability of wild type B16 melanoma cells; format: cell-based; details: 24 hr, 10-100 μM
# [4] = tested on: wild type B16 melanoma cells; assay: Effect on doxorubicin toxicity in wild type B16 melanoma cells; format: cell-based; details: clomipramine 10, […], 20 μM + doxorubicin 1, 2.5, 5 μM, 24 hr
# MDR B16 melanoma cells [5] = assay: Sensitization of MDR B16 melanoma cells to doxorubicin; format: cell-based; details: 24 hr
# mouse splenocytes = assay: Con-A-induced mouse splenocyte proliferation, Alamar blue; format: cell-based; details: for Splenocyte proliferation: 48 hours
# Experimental: The effect of several psychotropic drugs on the proliferation of Con-A-induced mouse splenocyte proliferation was examined. The specific drugs evaluated included, without being limited thereto, the bicyclic antidepressants paroxetine and sertraline.
# In particular, mouse splenocytes were isolated from C57BL healthy female mice. […]
# Cell viability was assessed 48 hr later using Alamar blue staining.
# (§3) In particular, cells 1×10^6 cells/well were exposed for 48 hours to each drug (2.5-10 μM).
# (§4) As described above, cells were exposed to each drug for 48 hours.
# [6] = tested on: IL-2 and INF-γ secretion from mouse splenocytes; assay: Con-A-induced splenocyte secretion of IL-2 and INF-γ; format: cell-based; details: 48 hours, 2.5-10 μM; FIG. 14
# Experimental: as §3
# MDR B16 melanoma cells [7] = assay: Cell viability of MDR B16 melanoma cells; format: cell-based; details: 24 hr
# Experimental: Specifically, the different drugs were applied for 24 hr to the cells (20,000/well) at concentrations of 10, 20, 30, 50, 75 and 100 μM.
# [8] = tested on: caspase-3 in human HaCaT cells; assay: Caspase-3 activation, fluorimetric Ac-DEVD-AMC method; format: cell-based; details: 4 hours, paroxetine 10-20 μM, sertraline 10-[…] μM
# Experimental: An additional marker for apoptosis is the activation of caspase-3 (a key mediator implicated in apoptosis in mammalian cells belong to the asparate-specific cysteinyl proteases or caspases).
# In the following assay caspase-3 activation was measured by an enzymatic fluorimetric method, using fluorigenic substrate (Ac-DEVD-AMC) (Biomol, PA, USA) which produces a blue fluorescence detected at a 360 nm wavelength. The fluorigenic moiety AMC is cleaved from the substrate in the presence of caspase-3 (and caspase-3-like enzymes), which results in appearance of a yellow-green fluorescence monitored by a fluorimeter at 460 nm. The amount of the yellow-green fluorescence is proportional to the activity of the caspase-3 in the cell extract sample.
# […]. […] Measurements were determined, after the 4 hr exposure, every 3 min during 45 min, after which a specific caspase 3 inhibitor DEVD-AMC-CHO (Alexis corp. Lausen Switzerland) was added to half of the samples and measurements continued for another 45 min as previously described (Garcia-Calvo M, Peterson E P, Leiting B, Ruel R, Nicholson D W, Thornberry N A: Inhibition of human caspases by peptide-based and macromolecular inhibitors. J Biol Chem, 27(49):32608-13, 1998).
# human lymphocytes = assay: PHA-induced human lymphocyte proliferation, Alamar blue; format: cell-based; details: PHA 2.5 μg/ml, 48 hr, 3 healthy volunteers
# Experimental: Human lymphocytes were isolated from whole blood of 3 healthy volunteers. Lymphocyte proliferation was induced by exposure 1×10^6 cells/well to phytohemagglutinin (PHA) (2.5 μg/ml). Cell viability was assessed 48 hr post exposure to paroxetine (2.5-10.0 μM) using Alamar blue reagent (Wildflower, Santa Fe, N.M., USA) staining Nociari M M, Shalev A, Benias P , et al. A novel one-step highly sensitive fluorimetric assay to evaluate cell-mediated cytotoxicity. J. Immunol. Methods 213(2): 157-167, 1998.
# [9] = tested on: TNF-α secretion from mouse splenocytes; assay: Con-A-induced TNF-α secretion from mouse splenocytes, ELISA; format: cell-based; details: 48 hours; for IC50: Mus musculus, Splenocyte, 2.5-20 μM, mean of three experiments
# Experimental: Cells treated with Con-A alone served as the control (“Con-A”).
# In particular, mouse splenocyte cells 1×10 (cells/well) were exposed, for 48 hours, to the different drugs and ConA and at the end of the experiment plates were centrifuged and supernatant collected for cytokine determination and TNF-α levels were determined in soups by ELISA. (R&D #DY410 Minnapolis USA)
# as §4
# [10] = 24 hr post-administration, Neutral Red, mean of several experiments
structure (smiles),measurement,setting,value
"O=c1[nH]cc(F)c(=O)[nH]1 [5-FU, 5-fluorouracil]",Responsiveness of HaCat cells (viability),HaCat cells [1],resistant
same,Responsiveness of HaCat A5 cells (viability),"HaCat A5 cells; comparison of thioridazine, doxorubicin, 5-FU, FIG. 3B",resistant
"CN(C)CCCC1(c2ccc(F)cc2)OCc2cc(C#N)ccc21 (stereo not shown) [Citalopram, citalopram]",IC50,HaCat cells [1]; [10],> 100 µM
"CN(C)CCCN1c2ccccc2CCc2ccc(Cl)cc21 [Clomipramine, clomipramine]",Effect on viability of HaCat cells,HaCat cells [1],effective in reducing viability
same,Effect on viability of HaCat A5 cells,HaCat A5 cells,effective in reducing viability
same,Effect on viability of HaCat II4 cells,HaCat II-4RT cells,effective in reducing viability
same,Red fluorescence of nuclei indicating apoptosis,HaCat cells [2],dramatic increase in red fluorescence of nuclei
same,Viability of wild type B16 melanoma cells,[3],capable of reducing cell viability
same,"Cell viability from control, in combination with doxorubicin",[4],less than 15%
same,Cell viability in combination with doxorubicin,MDR B16 melanoma cells [5],"significantly reduced, in a dose dependant manner"
same,Splenocyte proliferation,"mouse splenocytes; 2.5-10 μM, FIG. 14",dose dependent decrease in splenocyte proliferation
same,"Lymphocyte-induced cytokine secretion (IL-2, INF-γ)",[6],decrease in the lymphocyte-induced cytokine secretion
"CN1CCN(C2=Nc3cc(Cl)ccc3Nc3ccccc32)CC1 [Clozapine, clozapine]",Effect on viability of HaCat cells,HaCat cells [1],effective in reducing viability
same,Effect on viability of HaCat A5 cells,HaCat A5 cells,effective in reducing viability
same,Effect on viability of HaCat II4 cells,HaCat II-4RT cells,effective in reducing viability
same,Viability of wild type B16 melanoma cells,[3],reduced in a dose dependent manner
same,Viability of MDR B16 melanoma cells,MDR B16 melanoma cells [7],reduced in a dose dependent manner
"CNCCC(Oc1ccc(C(F)(F)F)cc1)c1ccccc1 (stereo not shown) [Fluoxetine, fluoxetine]",Effect on viability of HaCat cells,HaCat cells [1],effective in reducing viability
same,Effect on viability of HaCat A5 cells,HaCat A5 cells,effective in reducing viability
same,Effect on viability of HaCat II4 cells,HaCat II-4RT cells,effective in reducing viability
same,Viability of wild type B16 melanoma cells,[3],"capable of reducing cell viability, with fluoxetine being the most effective drug"
"CN(C)CCCN1c2ccccc2CCc2ccccc21 [Imipramine, imipramine]",Effect on viability of HaCat cells,HaCat cells [1],effective in reducing viability
same,Effect on viability of HaCat A5 cells,HaCat A5 cells,effective in reducing viability
same,IC50,"HaCat A5 cells; Homo sapiens, HaCaT, 24 hr post-administration, Neutral Red, mean of several experiments",62 µM
same,Effect on viability of HaCat II4 cells,HaCat II-4RT cells,effective in reducing viability
same,IC50,"HaCat II-4RT cells; Homo sapiens, HaCaT, 24 hr post-administration, Neutral Red, mean of several experiments, read-out: Mean IC50 in keratinocytes, HaCatII4RT",48 µM
"Fc1ccc([C@@H]2CCNC[C@H]2COc2ccc3c(c2)OCO3)cc1 [Paroxetine, paroxetine]",Effect on viability of HaCat cells,HaCat cells [1],effective in reducing viability
same,IC50,HaCat cells [1]; [10],17.8 µM
same,Effect on viability of HaCat A5 cells,HaCat A5 cells,effective in reducing viability
same,Effect on viability of HaCat II4 cells,HaCat II-4RT cells,effective in reducing viability
same,Red fluorescence of nuclei indicating apoptosis,HaCat cells [2],dramatic increase in red fluorescence of nuclei
same,Caspase-3 activity,[8],significant increase in caspase-3 activity
same,Viability of wild type B16 melanoma cells,[3],capable of reducing cell viability
same,IC50,human lymphocytes,5 to 10 µM
same,Splenocyte proliferation,"mouse splenocytes; 2.5-10 μM, FIG. 14",dose dependent decrease in splenocyte proliferation
same,Splenocyte proliferation,"mouse splenocytes; 2.5-25 μM, FIG. 16",inhibited cell proliferation and TNF-α secretion in a dose dependent manner
same,IC50,"mouse splenocytes; Mus musculus, Splenocyte, 48 hr, 2.5-10 μM, C57BL mice",2.5 to 5.5 µM
same,"Lymphocyte-induced cytokine secretion (IL-2, INF-γ)",[6],decrease in the lymphocyte-induced cytokine secretion
same,TNF-α secretion,"[9]; 2.5-25 μM, FIG. 16",inhibited cell proliferation and TNF-α secretion in a dose dependent manner
same,IC50,[9],2.5 µM
"CCOc1ccccc1OC(c1ccccc1)C1CNCCO1 (stereo not shown) [Reboxetine, reboxetine]",IC50,HaCat cells [1]; 24 h,> 100 µM
"CN[C@H]1CC[C@@H](c2ccc(Cl)c(Cl)c2)c2ccccc21 [Sertraline, sertraline]",Caspase-3 activity,[8],significant increase in caspase-3 activity
"CSc1ccc2c(c1)N(CCC1CCCCN1C)c1ccccc1S2 (stereo not shown) [Thioridazine, thioridazine]",Effect on viability of HaCat cells,HaCat cells [1],effective in reducing viability
same,Effect on viability of HaCat A5 cells,HaCat A5 cells,effective in reducing viability
same,Effect on viability of HaCat II4 cells,HaCat II-4RT cells,effective in reducing viability
"COc1ccc(C(CN(C)C)C2(O)CCCCC2)cc1 (stereo not shown) [Venlafaxine, venlafaxine]",IC50,HaCat cells [1]; [10],> 100 µM
C[C@@H]1C[C@H]2[C@@H]3CCC4=CC(=O)C=C[C@]4(C)[C@@]3(F)[C@@H](O)C[C@]2(C)[C@@]1(O)C(=O)CO [dexamethasone],IC50,[9],0.6 µM
COc1cccc2c1C(=O)c1c(O)c3c(c(O)c1C2=O)C[C@@](O)(C(=O)CO)C[C@@H]3O[C@H]1C[C@H](N)[C@H](O)[C@H](C)O1 [doxorubicin],Responsiveness of HaCat cells (viability),HaCat cells [1],equimolar IC50 as for thioridazine
NCCC(Oc1ccc(C(F)(F)F)cc1)c1ccccc1 (stereo not shown) [norfluoxetine],Antiproliferative activity as compared to fluoxetine,"HaCat cells [1]; viability of HaCat cells, FIG. 10",five times increased antiproliferative activity

# From patent US20050013853A1, “Anti-proliferative drugs” (priority 2000, published 2005)
